Test systems include SF-295 CNS; SK-MEL-5 melanoma; RPMI-8226 leukemia; NCI-H226 lung; SW-620 colon; SN12C renal; MDA-MB-231 breast; UACC-257 melanoma; U251 CNS; T-47D breast.
Test in all cases: inhibition of tumour cell growth, NCI panel, 48 h

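Tested at 5 concentrations; 48 h exposure; 96-well plates; endpoints linearly interpolated, else capped at highest concentration. At the TGI there is no net growth.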

As to `CCC1(O)C=CC(=O)C=C1`, the TGI in the assay on SF-295 CNS is greater than 100 µM; in the assay with SK-MEL-5 melanoma it was greater than 100 µM; in the assay on RPMI-8226 leukemia, greater than 100 µM; with NCI-H226 lung it was 75.3 µM; with SW-620 colon it was greater than 100 µM; in the assay with SN12C renal, greater than 100 µM. Besides, the TGI is 36.6 µM in the assay with MDA-MB-231 breast, greater than 52.5 µM with UACC-257 melanoma, 34.9 µM with U251 CNS and 67.7 µM in the assay with T-47D breast.
As to `O=C1N[C@H]2c3c(Cl)sc(Cl)c3C(=O)[C@H]2O1`, the TGI is 34.6 µM with SF-295 CNS; greater than 69 µM in the assay with SK-MEL-5 melanoma; greater than 80.8 µM in the assay with RPMI-8226 leukemia; 42.3 µM in the assay on NCI-H226 lung; 7.71 µM in the assay on SW-620 colon; greater than 47.6 µM in the assay on SN12C renal. Further, the TGI was greater than 58.2 µM in the assay on MDA-MB-231 breast, 36.2 µM with UACC-257 melanoma, 15.7 µM in the assay with U251 CNS and greater than 64.8 µM with T-47D breast.
With `CCOC(=O)c1cc2cc(Cc3ccc4[nH]c(C(=O)OCC)cc4c3)ccc2[nH]1`, the TGI in the assay on SF-295 CNS is 55.5 µM; in the assay on RPMI-8226 leukemia it was greater than 100 µM; in the assay on NCI-H226 lung, 62.4 µM; in the assay with SW-620 colon, greater than 100 µM; in the assay on SN12C renal, greater than 100 µM; in the assay with MDA-MB-231 breast, 37.9 µM. For the same compound, the values for the TGI in the assay on UACC-257 melanoma, in the assay with U251 CNS and in the assay with T-47D breast were greater than 100 µM, 29.9 µM and greater than 100 µM, respectively.
In the case of `C1=C2SSC3=CC=C(SSc4ccc(s4)SSC4=CC=C(SSC(=C1)S2)S4)S3`, the TGI with SF-295 CNS, with SK-MEL-5 melanoma, in the assay on RPMI-8226 leukemia, in the assay on NCI-H226 lung, in the assay on SW-620 colon and in the assay on SN12C renal was greater than 100 µM in each case. Moreover, the TGI in the assay on MDA-MB-231 breast, with UACC-257 melanoma, in the assay on U251 CNS and in the assay on T-47D breast was greater than 100 µM each time.
For the compound `CN(NC(=O)c1ccco1)C1=NCCCCN1`, the TGI in the assay with SF-295 CNS, with SK-MEL-5 melanoma, with RPMI-8226 leukemia, in the assay with NCI-H226 lung, with SW-620 colon and with SN12C renal was greater than 100 µM throughout. The TGI with MDA-MB-231 breast, in the assay with UACC-257 melanoma, in the assay on U251 CNS and with T-47D breast was greater than 100 µM throughout.
With `N#Cc1[nH]c(=O)n(-c2ccc([N+](=O)[O-])cc2)c1N`, the TGI in the assay on SF-295 CNS, with SK-MEL-5 melanoma, in the assay on RPMI-8226 leukemia, in the assay with NCI-H226 lung, in the assay on SW-620 colon and with SN12C renal was greater than 10 µM in each case. In addition, the TGI in the assay on MDA-MB-231 breast, in the assay with UACC-257 melanoma, in the assay with U251 CNS and in the assay with T-47D breast was greater than 10 µM each time.
With `O=c1cnn(C2OC(CO)C(O)C(F)C2O)c(=O)[nH]1` (stereo not drawn), the TGI in the assay with SF-295 CNS, with SK-MEL-5 melanoma, in the assay on RPMI-8226 leukemia, in the assay with NCI-H226 lung, in the assay on SW-620 colon and in the assay on SN12C renal was greater than 100 µM throughout. The TGI in the assay with MDA-MB-231 breast, in the assay with UACC-257 melanoma, with U251 CNS and in the assay on T-47D breast was greater than 100 µM each time.
`NC1=CN(CCCO)C2=N/C(=C\c3ccco3)C(=O)N12`: the TGI in the assay on SF-295 CNS, with SK-MEL-5 melanoma, with RPMI-8226 leukemia, in the assay on NCI-H226 lung, in the assay on SW-620 colon and in the assay on SN12C renal was greater than 100 µM each time. Also, the TGI with MDA-MB-231 breast, with UACC-257 melanoma, in the assay on U251 CNS and in the assay on T-47D breast was greater than 100 µM in each case.
Take `C=C(NC(=O)C(=C)NC(=O)c1csc(C2=NC3c4csc(n4)C4NC(=O)c5csc(n5)C(C(C)(O)C(C)O)NC(=O)C5CSC(=N5)/C(=C/C)NC(=O)C(C(C)O)NC(=O)c5csc(n5)C3(CC2)NC(=O)C(C)NC(=O)C(=C)NC(=O)C(=C)NC(=O)C(C(C)C)NC2C=Cc3c(C(C)O)cc(nc3C2O)C(=O)OC4C)n1)C(N)=O` (stereo not drawn): the TGI is greater than 100 µM in the assay with SF-295 CNS; greater than 100 µM with SK-MEL-5 melanoma; 13.6 µM with RPMI-8226 leukemia; 7.24 µM in the assay with NCI-H226 lung; greater than 100 µM in the assay with SW-620 colon; greater than 38 µM in the assay on SN12C renal. Also, the TGI with MDA-MB-231 breast was greater than 100 µM; in the assay on UACC-257 melanoma it was 18.7 µM; with U251 CNS, greater than 40.2 µM; in the assay on T-47D breast, 25 µM.
On to `CCOn1cc(C[C@@]2(O)C(=O)OC3[C@@H](O)CO[C@@]32O)c2ccccc21` (stereo partly drawn), for which the TGI in the assay with SF-295 CNS, in the assay with SK-MEL-5 melanoma, in the assay with RPMI-8226 leukemia, with NCI-H226 lung, in the assay with SW-620 colon and in the assay on SN12C renal was greater than 100 µM in each case. Further, the TGI with MDA-MB-231 breast, in the assay on UACC-257 melanoma, in the assay on U251 CNS and in the assay on T-47D breast was greater than 100 µM in each case.
In the case of `Oc1c(OCc2nnc(CCCCCCCCc3nnc(COc4ccc5ccccc5c4O)n3Nc3ccccc3)n2Nc2ccccc2)ccc2ccccc12`, the TGI in the assay on SF-295 CNS was determined as 13.9 µM; with SK-MEL-5 melanoma, 3.27 µM; with RPMI-8226 leukemia, 26.7 µM; in the assay on NCI-H226 lung it was 24.1 µM; with SW-620 colon, 24.6 µM; with SN12C renal, 29.2 µM. Further, the TGI in the assay on MDA-MB-231 breast is 23.4 µM; in the assay with UACC-257 melanoma it was 25.7 µM; with U251 CNS it was 25.5 µM; in the assay on T-47D breast, greater than 100 µM.
Regarding `Oc1ccc(-c2cc(-c3c(O)cc(O)cc3O)on2)cc1`, the TGI in the assay on SF-295 CNS, in the assay on SK-MEL-5 melanoma, in the assay on RPMI-8226 leukemia, in the assay on NCI-H226 lung, in the assay on SW-620 colon and in the assay with SN12C renal was greater than 100 µM throughout. Further, the TGI in the assay on MDA-MB-231 breast, in the assay with UACC-257 melanoma, in the assay on U251 CNS and in the assay with T-47D breast was greater than 100 µM each time.
As for `COc1ccc(C2CC(c3cc4c(C)c(C(=O)c5ccccc5)oc4cc3O)=Nc3ccccc3S2)cc1OC` (stereo not drawn), the TGI in the assay on SF-295 CNS, in the assay with SK-MEL-5 melanoma, with RPMI-8226 leukemia, with NCI-H226 lung, with SW-620 colon and in the assay on SN12C renal was greater than 100 µM in each case. Also, the TGI in the assay with MDA-MB-231 breast is greater than 100 µM; in the assay with UACC-257 melanoma, greater than 100 µM; with U251 CNS it was greater than 100 µM; in the assay with T-47D breast it was greater than 85.8 µM.
In the case of `COC(=O)OC[C@H]1O[C@@H](n2cc(C)c(=O)[nH]c2=O)CC1OC(=O)OC` (stereo partly drawn), the TGI in the assay with SF-295 CNS, in the assay with SK-MEL-5 melanoma, with RPMI-8226 leukemia, in the assay on NCI-H226 lung, in the assay with SW-620 colon and with SN12C renal was greater than 100 µM in each case. In addition, the TGI with MDA-MB-231 breast, with U251 CNS and in the assay with T-47D breast was greater than 100 µM each time.

The record behind these values is PubChem BioAssay (NCI).
